Where two headings read alike, the source gives them in different places.
Legend:
HBV = test: Determination of HBV DNA from the supernatants of HepAD38 cells (anti-HBV activity); format: cell-based, hepatitis B virus; details: HBV DNA in HepAD38 supernatant, day 6, qPCR, read-out: Cell Activity
In short: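 EC50 derived by non-linear regression of relative HBV DNA copy numbers, measured by qPCR (plasmid standards) in day-6 filtered supernatants. Before this, HepAD38 cells were exposed to serial half-log compound dilutions without tetracycline, releasing viral expression; cultures kept at 37 °C, 5% CO2.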

HepAD38 cells = test: Cell viability assay (AlamarBlue); details: 0.3 μg/ml tetracycline, six days incubation, AlamarBlue
[1] = biological target: HBV core protein (C-terminal truncated core protein containing 149 amino acids of the N-terminal assembly domain) (UniProt P03146); test: Biochemical capsid assembly assay (fluorescence quenching); design: rows headed: Assembly Activity; other: BODIPY-FL labelled core protein, assembly started with NaCl, read after 6 min; details: read-out: Assembly Activity; BODIPY-FL labelled core protein, assembly started with NaCl, read after 6 min
Sequence of HBV core protein (C-terminal truncated core protein containing 149 amino acids of the N-terminal assembly domain) (P03146 whole entry, the tested form may be a part): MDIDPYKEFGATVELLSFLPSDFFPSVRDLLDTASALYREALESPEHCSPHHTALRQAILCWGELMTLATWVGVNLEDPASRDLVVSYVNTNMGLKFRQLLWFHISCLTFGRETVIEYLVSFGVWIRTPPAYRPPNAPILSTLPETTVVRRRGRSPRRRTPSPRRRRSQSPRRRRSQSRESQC
In short: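 N-terminal assembly domain (residues 1–149) plus C-terminal Cys150, E. coli-expressed, BODIPY-FL-maleimide labelled, used at 1.0–2.0 μM in 50 mM HEPES pH 7.5 with 0.5% DMSO. Assembly started with NaCl ([…]); fluorescence quenching (ex 477/em 525 nm) read after 6 min. 8-point compound series; EC50 by non-linear regression.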

[2] = Cell viability assay (AlamarBlue); details: human, HepAD38 cells
[3] = Hepatitis B virus, HePAD38, 144 h

Structure (SMILES) | EC50 (HBV) | CC50 (HepAD38 cells) | IC50 [1] | EC50 (HBV; [3]) | CC50 at 6 days [2]
COCC1(N(C)C(=O)c2cnn3c2CN(C(=O)c2cc4ccccc4[nH]2)C(C)C3)CC1 (single isomer, unassigned) [Example 70, 5-(1H-indole-2-carbonyl)-N-[1-(methoxymethyl)cyclopropyl]-N,6-dimethyl-4H,5H,6H,7H-pyrazolo[1,5-a]pyrazine-3-carboxamide] | < 1 µM | > 10 µM | < 5 µM | – | –
CC1Cn2ncc(C(=O)N(C)C3CC3)c2CN1C(=O)c1cc2ccccc2[nH]1 (single isomer, unassigned) [Example 71, N-cyclopropyl-5-(1H-indole-2-carbonyl)-N,6-dimethyl-4H,5H,6H,7H-pyrazolo[1,5-a]pyrazine-3-carboxamide] | < 1 µM | > 10 µM | < 5 µM | – | –
CC1Cn2ncc(C(=O)NC3(COC(F)F)CC3)c2CN1C(=O)c1cc2ccccc2[nH]1 (single isomer, unassigned) [Example 132, N-{1-[(difluoromethoxy)methyl]cyclopropyl}-5-(1H-indole-2-carbonyl)-6-methyl-4H,5H,6H,7H-pyrazolo[1,5-a]pyrazine-3-carboxamide] | < 1 µM | > 10 µM | < 5 µM | – | –
Cc1cc(F)cc2[nH]c(C(=O)N3Cc4c(C(=O)N[C@H](C)C(F)(F)F)cnn4CC3C)cc12 (stereo partly drawn) [Example 146, 5-(6-fluoro-4-methyl-1H-indole-2-carbonyl)-6-methyl-N-[(2R)-1,1,1-trifluoropropan-2-yl]-4H,5H,6H,7H-pyrazolo[1,5-a]pyrazine-3-carboxamide] | – | – | < 5 µM | < 1 µM | > 10 µM
CC1Cn2ncc(C(=O)N[C@H](C)C(F)(F)F)c2CN1C(=O)c1cc2cc(F)c(Cl)cc2[nH]1 (stereo partly drawn) [Example 147, 5-(6-chloro-5-fluoro-1H-indole-2-carbonyl)-6-methyl-N-[(2R)-1,1,1-trifluoropropan-2-yl]-4H,5H,6H,7H-pyrazolo[1,5-a]pyrazine-3-carboxamide] | – | – | < 5 µM | < 1 µM | > 10 µM
O=C(NC1(CCOC(F)F)COC1)c1cnn2c1CN(C(=O)c1cc3ccccc3[nH]1)CC2 [Example 148, N-{3-[2-(difluoromethoxy)ethyl]oxetan-3-yl}-5-(1H-indole-2-carbonyl)-4H,5H,6H,7H-pyrazolo[1,5-a]pyrazine-3-carboxamide] | – | – | < 5 µM | < 1 µM | > 10 µM

From US20220363686A1 (AiCuris GmbH & Co. KG, priority 2018, published 2022)
